Experiments:
SNK-6 (IL-2 2.5 ng/mL) [1] = assay: drug sensitivity score (DSS) (DSS units); higher = more sensitive; extreme values may be limits of the assay; details: 72 h
KAI3 (IL-2 2.5 ng/mL) [2] = assay: as above; details: 72 h
[3] = test system: normal primary NK cells, pool 3 (3 donors) (IL-2 2.5 ng/mL); assay: as above; details: 72 h
NK-YS (IL-2 2.5 ng/mL) [4] = assay: as above; details: 72 h
[5] = test system: normal primary NK cells, pool 2 (3 donors) (IL-2 2.5 ng/mL); assay: as above; details: 72 h
KHYG-1 (IL-2 2.5 ng/mL) [6] = assay: as above; details: 72 h
DERL-7 (IL-2 2.5 ng/mL) [7] = assay: as above; details: 72 h
NK-92 (IL-2 2.5 ng/mL) [8] = assay: as above; details: 72 h
[9] = test system: normal primary NK cells, pool 1 (3 donors) (IL-2 2.5 ng/mL); assay: as above; details: 72 h
[10] = test system: normal primary NK cells, pool 1 (3 donors), resting (IL-2 0 ng/mL); assay: as above; details: 72 h
IMC-1 (IL-2 20 ng/mL) [11] = assay: as above; details: 72 h
YT (IL-2 2.5 ng/mL) [12] = assay: as above; details: 72 h
NKL (IL-2 2.5 ng/mL) [13] = assay: as above; details: 72 h
SNK-6 (IL-2 2.5 ng/mL) [14] = assay: percent inhibition of viability; higher = more inhibition; details: 72 h
KAI3 (IL-2 2.5 ng/mL) [15] = assay: as above; details: 72 h
[16] = test system: normal primary NK cells, pool 3 (3 donors) (IL-2 2.5 ng/mL); assay: as above; details: 72 h
NK-YS (IL-2 2.5 ng/mL) [17] = assay: as above; details: 72 h
[18] = test system: normal primary NK cells, pool 2 (3 donors) (IL-2 2.5 ng/mL); assay: as above; details: 72 h
KHYG-1 (IL-2 2.5 ng/mL) [19] = assay: as above; details: 72 h
DERL-7 (IL-2 2.5 ng/mL) [20] = assay: as above; details: 72 h
NK-92 (IL-2 2.5 ng/mL) [21] = assay: as above; details: 72 h
[22] = test system: normal primary NK cells, pool 1 (3 donors) (IL-2 2.5 ng/mL); assay: as above; details: 72 h
[23] = test system: normal primary NK cells, pool 1 (3 donors), resting (IL-2 0 ng/mL); assay: as above; details: 72 h
IMC-1 (IL-2 20 ng/mL) [24] = assay: as above; details: 72 h
YT (IL-2 2.5 ng/mL) [25] = assay: as above; details: 72 h
NKL (IL-2 2.5 ng/mL) [26] = assay: as above; details: 72 h
[27] = test system: normal NK cells expanded with K562-aAPC; assay: drug sensitivity score (DSS) (DSS units); higher = more sensitive; extreme values may be limits of the assay; details: 72 h; IL-2 2.5 ng/mL
Method: (§1)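 Drug sensitivity and resistance testing on K562-aAPC-expanded normal NK cells: 5 concentrations (10-fold steps over a 10,000-fold range), 72 h at 37 °C, viability by CellTiter-Glo normalised to DMSO and benzethonium chloride controls; DSS from the fitted curve.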

[28] = test system: normal NK cells expanded with K562-aAPC; assay: percent inhibition of viability; higher = more inhibition; details: 72 h, IL-2 2.5 ng/mL
Method: as §1

CN(C)/N=N/c1[nH]cnc1C(N)=O [Dacarbazine] (max concentration tested 10000 nM)
Details	drug sensitivity score
DERL-7 (IL-2 2.5 ng/mL) [7]	0
IMC-1 (IL-2 20 ng/mL) [11]	0
KAI3 (IL-2 2.5 ng/mL) [2]	0
KHYG-1 (IL-2 2.5 ng/mL) [6]	1.97
NK-92 (IL-2 2.5 ng/mL) [8]	0
NK-YS (IL-2 2.5 ng/mL) [4]	2.15
NKL (IL-2 2.5 ng/mL) [13]	0
SNK-6 (IL-2 2.5 ng/mL) [1]	10.7
YT (IL-2 2.5 ng/mL) [12]	3.43
[3]	0
[5]	0
[9]	0
[10]	0
[27]	0

percent inhibition of viability [%]
Details	1 nM	10 nM	100 nM	1000 nM	10000 nM
DERL-7 (IL-2 2.5 ng/mL) [20]	-2.46	-7.71	-9.81	-6.85	-5.73
IMC-1 (IL-2 20 ng/mL) [24]	-2.15	-3.53	1.36	1.13	5.24
KAI3 (IL-2 2.5 ng/mL) [15]	-5.96	-7.58	-5.99	-9.63	10.8
KHYG-1 (IL-2 2.5 ng/mL) [19]	-1.18	-4.93	-1.85	0.07	39.6
NK-92 (IL-2 2.5 ng/mL) [21]	-11.1	-14.5	-3.48	-12.7	-1.95
NK-YS (IL-2 2.5 ng/mL) [17]	-2.92	-5.5	2.66	4.39	31.8
NKL (IL-2 2.5 ng/mL) [26]	-15.6	-10.8	-1.7	0.09	-2.93
SNK-6 (IL-2 2.5 ng/mL) [14]	16.4	16	31.9	30.4	22.6
YT (IL-2 2.5 ng/mL) [25]	-0.72	-1.38	3.7	1.57	59.6
[16]	-14.1	-10.7	-2.39	-8.2	3.49
[18]	-10.3	-8.69	-2.46	-11.8	-2.6
[22]	1.02	-5.15	0.2	-11.5	-4.15
[23]	-7.07	-16.7	-8.98	-35.2	-22.9
[28]	-6.74	-2.31	-4.77	1.92	10.3

CCCCC/C=C/C=C1/C(=O)C=C[C@@H]1C/C=C\CCCC(=O)O [15D-PGJ2] (max concentration tested 3000 nM)
Details	drug sensitivity score
DERL-7 (IL-2 2.5 ng/mL) [7]	0.17
IMC-1 (IL-2 20 ng/mL) [11]	0
KAI3 (IL-2 2.5 ng/mL) [2]	0.28
KHYG-1 (IL-2 2.5 ng/mL) [6]	0
NK-92 (IL-2 2.5 ng/mL) [8]	0.46
NK-YS (IL-2 2.5 ng/mL) [4]	0
NKL (IL-2 2.5 ng/mL) [13]	0
SNK-6 (IL-2 2.5 ng/mL) [1]	1.74
YT (IL-2 2.5 ng/mL) [12]	0.01
[3]	0.13
[5]	0.45
[9]	0.07
[10]	0
[27]	1.44

percent inhibition of viability [%]
Details	0.3 nM	3 nM	30 nM	300 nM	3000 nM
DERL-7 (IL-2 2.5 ng/mL) [20]	3.37	-0.28	-1.84	-0.56	14.4
IMC-1 (IL-2 20 ng/mL) [24]	-2.09	2.04	0.05	5.09	1.41
KAI3 (IL-2 2.5 ng/mL) [15]	-4.96	-2.91	-5.31	-1.28	16.5
KHYG-1 (IL-2 2.5 ng/mL) [19]	-5.02	1.78	4.62	3.59	4.59
NK-92 (IL-2 2.5 ng/mL) [21]	-11	-12	-5.46	5.82	13.3
NK-YS (IL-2 2.5 ng/mL) [17]	2.56	5.36	6.24	9.44	10.4
NKL (IL-2 2.5 ng/mL) [26]	-9.35	-3.21	-6.49	3.89	-15.1
SNK-6 (IL-2 2.5 ng/mL) [14]	1.92	3.18	18.9	6.05	19.9
YT (IL-2 2.5 ng/mL) [25]	-2.94	-0.98	-4.25	-6.3	12.1
[16]	-15.9	-3.38	4.01	-2.88	14.8
[18]	-13.3	-1.17	5.71	0.83	16.9
[22]	8.24	-4.33	-3.39	-9.81	14
[23]	6.38	-19	3.5	-8.64	11.8
[28]	-3.92	-2.07	0.09	7.83	19.8
